Assay results as given in patent US4189499A, “Lysine 4-allyloxy-3-chlorophenylacetate and method of its preparation” (priority 1979, dated 1980).
“And” between values parts separate entries of the source, which are not always exact repeats. Equal values may be shown once. “Also recorded” adds a separate entry of the source. Read-outs that look alike come from different tables or passages of the source.

Experiments:
pH of aqueous solution = assay type: physicochemical
[1] = Extent of availability after different routes, intravenous administration as reference; assay type: in vivo, rabbit
Experimental: (§1) The following pharmacological experimentation was carried out in order to estimate the comparative absorption and bioavailability through various administration routes in rabbits of Alclofenac acid and its lysine salt.

[2] = Pharmacokinetics after i.v. injection in rabbits; assay type: in vivo, rabbit; details: i.v. 90 mg/kg (as acid)
Experimental: as §1

[3] = Analgesic, antipyretic and antiinflammatory activity; assay type: in vivo; details: versus the starting acid
[4] = tested on: rabbit dorsal long muscle; test: Local tolerability after intramuscular injection, muscle removed at 24 hours, irritation by arbitrary scores; assay type: in vivo; parameters: scale not given here
Experimental: Such a tolerability was estimated after injection of equivalent solutions of the various preparations, effected in the rabbit dorsal long muscle, removing muscle 24 hours after injection and estimating the degree of induced irritation through arbitrary scores.

rat leg = test: Tolerability by volume increase of rat leg versus commercial injectable preparations; assay type: in vivo; details: FIG. 1
Source text: This type of preparation was estimated also in comparison with commercially available injectable preparations according to the method of volume increase of rat leg and results are shown in FIG. 1 of the drawings.

[5] = Pharmacokinetics from plasma levels after oral, rectal and intramuscular administration in rabbits; assay type: in vivo, rabbit
Experimental: as §1

[6] = General tolerability by route of administration; assay type: in vivo
Solubility = assay type: physicochemical; details: in words, solvent as stated
[7] = Stability and hygroscopicity; assay type: physicochemical
[8] = individual, in order Rabbit I, II, III, IV, 90 mg/kg
[9] = 100 mg/ml (as acid), 0.5 ml injected
[10] = 131 mg/ml (as acid), 0.25 ml injected
[11] = INTRAMUSCOLAR 80 mg/kg, ± E.S.M.
[12] = P.OS 90 mg/kg, ± E.S.M., listed as Lysine Salt
[13] = P.OS 90 mg/kg, ± E.S.M., listed as Lysine Salt, 90 mg/kg
[14] = RECTAL 100 mg/kg, ± E.S.M., listed as Lysine Salt
[15] = RECTAL 100 mg/kg, ± E.S.M., listed as Lysine Salt, 100 mg/kg
[16] = rabbit, plasma, im, 80 mg/kg, INTRAMUSCOLAR 80 mg/kg, ± E.S.M.

C=CCOc1ccc(CC(=O)O)cc1Cl [Alclofenac-Lysine, lysine 4-allyloxy-3-chlorophenylacetate]
pH value of the 10% aqueous solution (pH of aqueous solution; 10% aqueous solution): 7.7
pH of 25% parts/volume aqueous solution (pH of aqueous solution; 25% parts/volume, specification): 7.4-7.8
% Availability (AUC o → 2h) ([1]; I.V. 90 mg/kg, 0-2 h, reference): 100%
% Availability (AUC o → 4h) ([1]; I.V. 90 mg/kg, 0-4 h, reference): 100%
% Availability (practical AUC) ([1]; I.V. 90 mg/kg, reference): 100%
% Availability (theoretical AUC) ([1]; I.V. 90 mg/kg, reference): 100%
bioavailability at 2 h ([1]; rabbit, plasma, 100 mg/kg, Rectal 100 mg/kg, 0-2 h, i.v. as reference, read-out: % Availability (AUC o → 2h)): 95.7%
bioavailability ([1]; rabbit, plasma, 100 mg/kg, Rectal 100 mg/kg, i.v. as reference, read-out: % Availability (practical AUC)): 100%
bioavailability ([1]; rabbit, plasma, 100 mg/kg, Rectal 100 mg/kg, i.v. as reference, read-out: % Availability (theoretical AUC)): 89.2%
bioavailability ([1]; rabbit, plasma, im, 80 mg/kg, I.M. 80 mg/kg, i.v. as reference, read-out: % Availability (practical AUC)): 95.4%
bioavailability ([1]; rabbit, plasma, im, 80 mg/kg, I.M. 80 mg/kg, i.v. as reference, read-out: % Availability (theoretical AUC)): 155%
bioavailability at 4 h ([1]; rabbit, plasma, po, 90 mg/kg, P.O. 90 mg/kg, 0-4 h, i.v. as reference, read-out: % Availability (AUC o → 4h)): 58.1%
bioavailability ([1]; rabbit, plasma, po, 90 mg/kg, P.O. 90 mg/kg, i.v. as reference, read-out: % Availability (practical AUC)): 88.5%
bioavailability ([1]; rabbit, plasma, po, 90 mg/kg, P.O. 90 mg/kg, i.v. as reference, read-out: % Availability (theoretical AUC)): 82.7%
A ([2]; MEAN ± S.E.M. of 4 rabbits): 165.7 ± 16.6 µg/mL
B ([2]; MEAN ± S.E.M. of 4 rabbits): 293.5 ± 14.2 µg/mL
K12 ([2]; MEAN ± S.E.M. of 4 rabbits): 0.027 ± 0.003 min⁻¹
K21 ([2]; MEAN ± S.E.M. of 4 rabbits): 0.053 ± 0.009 min⁻¹
α ([2]; MEAN ± S.E.M. of 4 rabbits): 0.082 ± 0.011 min⁻¹
A [2, 8]: 170.51 µg/mL and 151.04 µg/mL and 209.59 µg/mL and 131.86 µg/mL
B [2, 8]: 269.19 µg/mL and 324.95 µg/mL and 269.89 µg/mL and 310.16 µg/mL
CL [2, 8]: 0.56 mL/min/kg and 0.63 mL/min/kg and 0.36 mL/min/kg and 0.74 mL/min/kg
K12 [2, 8]: 0.030 min⁻¹ and 0.034 min⁻¹ and 0.028 min⁻¹ and 0.018 min⁻¹
K21 [2, 8]: 0.051 min⁻¹ and 0.078 min⁻¹ and 0.038 min⁻¹ and 0.047 min⁻¹
Kel [2, 8]: 0.0033 min⁻¹ and 0.0019 min⁻¹ and 0.0036 min⁻¹
Vdβ [2, 8]: 0.274 L/kg and 0.329 L/kg and 0.285 L/kg
t1/2α [2, 8]: 6 min and 10.5 min (2×)
t1/2β [2, 8]: 6.8 h and 5.02 h and 10.5 h and 4.43 h
α [2, 8]: 0.083 min⁻¹ and 0.113 min⁻¹ and 0.067 min⁻¹ and 0.066 min⁻¹
β [2, 8]: 0.0017 min⁻¹ and 0.0023 min⁻¹ and 0.0011 min⁻¹ and 0.0026 min⁻¹
k el ([2]; rabbit, in vivo, iv, 90 mg/kg, MEAN ± S.E.M. of 4 rabbits, read-out: β (converted)): 3.17e-05 s⁻¹
clearance ([2]; rabbit, plasma, iv, 90 mg/kg, MEAN ± S.E.M. of 4 rabbits): 0.57 ± 0.08 mL/min/kg
k el ([2]; rabbit, plasma, iv, 90 mg/kg, MEAN ± S.E.M. of 4 rabbits, read-out: Kel (converted)): 4.83e-05 s⁻¹
Vd ([2]; rabbit, plasma, iv, 90 mg/kg, MEAN ± S.E.M. of 4 rabbits, read-out: Vdβ): 0.304 ± 0.015 L/kg
half-life ([2]; rabbit, plasma, iv, 90 mg/kg, MEAN ± S.E.M. of 4 rabbits, read-out: t1/2α): 0.15 ± 0.0167 h
half-life ([2]; rabbit, plasma, iv, 90 mg/kg, MEAN ± S.E.M. of 4 rabbits, read-out: t1/2β): 6.68 ± 1.35 h
Vd ([2]; rabbit, plasma, iv, 90 mg/kg, MEAN ± S.E.M. of 4 rabbits, read-out: √1): 0.196 ± 0.005 L/kg
Vd ([2]; rabbit, plasma, iv, 90 mg/kg, MEAN ± S.E.M. of 4 rabbits, read-out: √2): 0.392 ± 0.06 L/kg
k el ([2]; rabbit, plasma, iv, 90 mg/kg, individual, in order Rabbit I, II, III, IV, read-out: Kel (converted)): 4.5e-05 s⁻¹
Vd ([2]; rabbit, plasma, iv, 90 mg/kg, individual, in order Rabbit I, II, III, IV, read-out: Vdβ): 0.33 L/kg
half-life ([2]; rabbit, plasma, iv, 90 mg/kg, individual, in order Rabbit I, II, III, IV, read-out: t1/2α): 0.142 h
Vd ([2]; rabbit, plasma, iv, 90 mg/kg, individual, in order Rabbit I, II, III, IV, read-out: √1): 0.205 L/kg
analgesic, antipyretic and antiinflammatory properties [3]: equal or even superior to those of the starting acid
SCORES at 24 hours, Average [4, 9]: 2.3
SCORES at 24 hours, Average [4, 10]: 2.6
SCORES at 24 hours, individual [4, 9]: 2 (2×) and 3
SCORES at 24 hours, individual [4, 10]: 2 and 3 and 4 (2×) and 0
tolerability versus Mervan (rat leg): better more tolerated than a commercially available preparation
Ka [5, 11]: 0.0131 ± 0.0031 min⁻¹
t1/2α [5, 11]: 1 ± 0.183 h
Ka [5, 12]: 0.0174 ± 0.0047 min⁻¹
t1/2α [5, 12]: 0.616667 ± 0.13333 h
Cmax [5, 13]: 454.5 ± 152.2 µg/mL
Kel [5, 13]: 0.0023 ± 0.0005 min⁻¹
Tmax [5, 13]: 2.18 ± 0.467 h
Vdβ [5, 13]: 0.301 ± 0.050 L/kg
t1/2β [5, 13]: 6.28 ± 1.53 h
Ka [5, 14]: 0.132 ± 0.032 min⁻¹
t1/2α [5, 14]: 0.13 ± 0.05 h
CL [5, 15]: 0.55 ± 0.03 mL/kg
Cmax [5, 15]: 473.7 ± 24.1 µg/mL
Kel [5, 15]: 0.0026 ± 0.0004 min⁻¹
Tmax [5, 15]: 0.65 ± 0.183 h
Vdβ [5, 15]: 0.248 ± 0.072 L/kg
t1/2β [5, 15]: 4.47 ± 1.18 h
intramuscular absorption velocity, in words ([5]; intramuscular, versus per os): may be compared with that per os
intramuscular blood levels, in words ([5]; intramuscular, versus per os): instantaneous and sustained blood levels are lower
absorption velocity ([5]; oral and rectal route): higher absorption velocity even through the oral and rectal route
absorption, in words ([5]; oral and rectal route, rabbits, listed as Lysine Salt): absorbed faster and to a higher extent in comparison with the acidic substance
CL/F [5, 16]: 0.67 ± 0.06 mL/min/kg
k el [5, 16]: 1.17e-05 s⁻¹
Cmax ([5]; rabbit, plasma, im, 80 mg/kg, INTRAMUSCOLAR 80 mg/kg, ± E.S.M., read-out: Cmax): 144 ± 30 µg/mL
Vd/F ([5]; rabbit, plasma, im, 80 mg/kg, INTRAMUSCOLAR 80 mg/kg, ± E.S.M., read-out: Vdβ): 0.607 ± 0.09 L/kg
half-life ([5]; rabbit, plasma, im, 80 mg/kg, INTRAMUSCOLAR 80 mg/kg, ± E.S.M., read-out: t1/2β): 23.4 ± 6.3 h
Tmax ([5]; rabbit, plasma, im, 80 mg/kg, INTRAMUSCOLAR 80 mg/kg, ± E.S.M., read-out: tmax (converted)): 4.62 h
tolerability on injection ([6]; intravenous or intramuscular): well tolerated after either intravenous or intramuscular administration
tolerability per os ([6]; oral): better tolerated per os; also recorded: better tolerance
Solubility (Solubility): soluble in biological fluids; also recorded: extremely soluble in water and alcohols; also recorded: insoluble in acetone
Solubility (Solubility; listed as compound (1)): very soluble in water and alcohols; also recorded: insoluble in acetone
Stability of the solution ([7]; in words, listed as compound (1)): perfectly stable
Hygroscopicity ([7]; isolated solid): non-hygroscopic
